Source: patent US20230104477A1, “USE OF DEHYDROASCORBIC ACID AGAINST NEMATODE INFECTION IN PLANTS” (Universiteit Gent, priority 2019, published 2023)

Tests used:
[1] = test system: root-knot nematode Meloidogyne graminicola; test: Root growth in rice after foliar spray, nematode-infected conditions (tolerance); type: in vivo; conditions: 14-days old rice, foliar spray 20 mM, 250 nematodes per plant
Experimental: (§1) Rice—Seeds of wild-type rice Oryza sativa cv. Nipponbare were obtained from USDA (GSOR-100). Seeds were germinated on wet filter paper for 4-5 days at 30° C. and seedlings were then transferred to SAP-substrate (Sand mixed with Absorbent Polymer AquaPerla®, DCM, Belgium) and further grown at 28° C., under a light regime of (day/night) 12/12. Hoagland solution was given as a source of nutrients 3 times a week.
(§2) M. graminicola originally isolated in the Philippines (Batangas) was cultured on susceptible rice plants. Second stage juveniles (J2s) were extracted using a sieve/tray extraction method and inoculation was done as described in Nahar et al., (2011). For susceptibility assays, at least two independent experiments were carried out, each time including eight plants per treatment. Twelve days after inoculation (dai), roots were stained using acid fuchsine (Nahar et al., 2011) to count galls and number of nematodes in the roots.
(§3) Reduced Ascorbic acid (AA, 20 mM), dehydroascorbic acid (DHA, 20 mM), ascorbate oxidase (AO, 20 U/ml), methyl jasmonate (MeJA, 100 μM), aminooxyacetic acid (AoA, 12.5 mM), diethyldithiocarbamic acid (DIECA, 100 μM) and ethephon (100 μM) were purchased from Sigma and dissolved in water (except MeJA that was first dissolved in a drop of ETOH) to attain the indicated concentration.
(§4) For foliar application, all chemicals were dissolved in water and 0.02% (v/v) of Tween20 as a surfactant was added prior to spraying on aerial portions of the rice plants. Control plants were sprayed with distilled water containing 0.02% Tween20. Eight plants per treatment were sprayed until run-off with 6.5 mL of solution (at 24 h prior to nematode inoculation, in cases where infected plants were used). The substrate was covered to avoid direct contact with the roots and/or nematodes.

[2] = test system: Heterodera schachtii; test: Sugar beet tolerance to beet cyst nematode infection after foliar spray; type: in vivo; conditions: 250 H. schachtii per plant
Experimental: (§5) Sugar beet—seeds of cv. Amarok were germinated on moist tissue for 4-5 days at 25° C. For longer experiments seedlings were transplanted to polyvinyl-chloride (PVC) tubes containing fine soil particles. All experiments were conducted in a plant growth room at 25° C., with a 16/8 h day/night regime. The plants were fertilized by supplying Hoagland solution as a source of nutrients 3 times a week.
BNC cysts were obtained from Iran and were maintained on sugar beet (cv. Amarok) plants. Cysts were obtained from stock cultures, by washing the infected soil and letting the cysts to float in water. Full cysts with eggs were hand-picked and allowed to dry before setting up for hatching. For second-stage juveniles (J2) to hatch, cysts were placed in 3 mM of […] and transferred to an incubator/shaker at a temperature of 25.5° C. at 70 rpm for 4 days (Kammerhofer et al., 2015). J2 were re-suspended in water and counted under a stereomicroscope. Around 250-300 J2 nematodes were inoculated per plant. One day before and after inoculation, plants were not supplied with any nutrients or water. To investigate the plant tolerance to BCN infection root length, shoot height, fresh root weight as well as the number of cysts were measured at different time points after spraying and/or inoculation. For all experiments, 8 individual plants were used per treatment.
as §3, §4

[3] = test system: rice plants; test: Root growth in rice after foliar spray, uninfected conditions; type: in vivo, Oryza sativa cv. Nipponbare; conditions: 14-days old rice, foliar spray 20 mM, 12 DAS, vs water control
Experimental: as §1, §3, §4

[4] = test system: Turnip mosaic virus; conditions: applied to Brassica rapa plants (Fujiwara et al., 2013); cited from earlier work
[5] = Ascorbate measurements in shoots and roots of foliar sprayed rice; type: in vivo, Oryza sativa cv. Nipponbare; conditions: 24 h after foliar application; vs control plants
Experimental: as §4
[…] In each assay, 100 mg of crushed material was used per sample, and at least 4 biological replicates were analyzed per treatment. Reduced and oxidized AA were measured according to the method described in Ueda et al., 2013. Absorbance was monitored using a microplate reader (TECAN—Infinite200pro).

[6] = test system: root-knot nematode M. graminicola; test: Susceptibility assay on rice plants, foliar spray; type: in vivo, Meloidogyne graminicola; conditions: foliar spray 24 h prior to inoculation (AA 20 mM, DHA 20 mM, AO 20 U/ml); 12 dai; vs control
Experimental: as §2, §3, §4

[7] = test system: sugar beet plants; test: Root and shoot growth in uninfected sugar beet plants after foliar spray; type: in vivo, Beta vulgaris cv. Amarok
Experimental: as §5, §3, §4

[8] = test system: H2O2; test: H2O2 measurements in roots (xylenol orange method); type: in vivo, rice; conditions: 20 mM DHA-pretreated plants upon M. graminicola infection, 1 dpi
Experimental: H2O2 measurements—14 days old rice plants were foliar sprayed with 20 mM DHA and 1 day later, plants were inoculated with Meloidogyne graminicola nematodes (Mg+) or mock inoculated (Mg−). One day after inoculation, samples were collected. Root samples were flash-frozen and ground under liquid nitrogen. Per sample, 100 mg of material was used to execute the xylenol orange method for H2O2 quantification described by Cheeseman (2006). After 5% trichloroacetic acid extraction, and 30 minutes reaction with the ferrous ammonium sulphate/xylenol orange (FOX) reagent, the absorbance was measured at 560 nm. The concentration was calculated by comparison with a standard curve of known H2O2 concentrations. The assay was done with 3 biological replicates, which each consisted of pooled material of 4 plants.

[9] = test system: rice seedlings; test: Evaluation of seedling growth after drenching rice seedlings; type: in vivo, Oryza sativa cv. Nipponbare
Experimental: as §1, §3
3-days old rice seedlings were drenched with 1 mL of AA (20 mM), AO (20 U/mL), DHA (20 mM) or water (H2O) as a negative control. Rice root length and dry root weight as well as the number of embryonic crown roots (ECR) were measured 5 days after drenching.

[10] = test system: root-knot nematode Meloidogyne graminicola; test: Susceptibility assay on rice plants, soil drench; type: in vivo; conditions: soil drench 24 h prior to inoculation (AA 20 mM, DHA 20 mM, AO 20 U/mL); twelve days after inoculation; vs control
Experimental: as §2, §3
For soil application, 6.5 mL of each solution was drenched on the substrate, 24 h prior to nematode inoculation.

[11] = three-weeks old sugar beet, foliar spray (AA 20 mM, AO 20 U/mL, DHA 20 mM), 4 DAS (3 dai)
[12] = two-week old sugar beet, foliar spray, seven days later, effect not statistically significant
[13] = 3-days old rice seedlings drenched with 1 mL (AA 20 mM, DHA 20 mM, AO 20 U/ml), 5 days after drenching, vs water control

SMILES: O=C1O[C@H]([C@@H](O)CO)C(=O)C1=O [DHA, (5R)-5-[(1S)-1,2-dihydroxyethyl]furan-2,3,4(5H)-trione]
- root length ([1]; 8 DAS (7 days after inoculation)): most significant improved root length
- root length ([1]; 12 DAS (11 days after inoculation)): most significant improved root length
- root system development ([2]; foliar spray DHA 20 mM, 43 DAS, vs control): better developed root system
- number of cysts ([2]; foliar spray DHA 20 mM, 43 DAS, vs untreated plants): significantly lower
- fresh root weight ([2]; foliar spray, 43 DAS (42 days after inoculation), vs control): significantly more fresh root weight
- root length [2, 11]: significantly increased
- root weight [2, 11]: significantly increased
- shoot weight [2, 11]: significantly increased
- shoot height ([2]; three-weeks old sugar beet, foliar spray (AA 20 mM, AO 20 U/mL, DHA 20 mM), 4 DAS (3 dai), DHA effect not statistically significant): positively influenced
- root length [3]: significantly longer roots
- antiviral effect [4]: antiviral effect
- amount of DHA in shoots [5]: significantly higher amounts of DHA
- total ascorbate level in roots [5]: increased
- number of galls [6]: significantly lower number of galls
- number of nematodes [6]: lower number of nematodes
- general appearance of plants ([7]; sugar beet, foliar spray DHA 20 mM, throughout the experiment): looked more vigorous
- root length ([7]; two-week old sugar beet, foliar spray (DHA 20 mM, AO 20 U/mL), seven days later, vs water control): significantly longer roots
- fresh root weight [7, 12]: positively affected
- shoot length [7, 12]: positively affected
- H2O2 levels in roots [8]: induced
- dry root weight [9, 13]: significantly higher
- number of embryonic crown roots (ECR) [9, 13]: significantly higher
- root length [9, 13]: significantly higher
- general appearance of seedlings ([9]; rice seedlings drenched with DHA 20 mM): looked more vigorous
- number of galls [10]: significantly lower number of galls
- number of nematodes [10]: lower number of nematodes
